A word on the Ki: it is the equilibrium dissociation constant of an inhibitor or competing ligand from its target. Lower therefore signals higher affinity.

The species named for this test is Rattus norvegicus. Kind of test: Displacement of [3H]TCP from PCP receptor in tissue preparation of whole rat brain minus cerebellum. The class given is functional, organism-based. Background: Displacement assays read how much labelled ligand stays bound in the presence of the test substance.

Structures are written as SMILES.

As for `CCN1CCCC[C@H]1[C@H]1COC(c2ccccc2)(c2ccccc2)O1`, the Ki is 6900 nM. The value for `CCC[C@H](N)[C@H]1COC(c2ccccc2)(c2ccccc2)O1` was 3450 nM; that for `CC[C@]1(c2ccccc2F)OC[C@H]([C@@H]2CCCCN2)O1` was 36 nM. The value for `CC[C@]1(c2cccc(O)c2)OC[C@H]([C@@H]2CCCCN2)O1` was 489 nM; that for `c1ccc(C2(c3ccccc3)OCC(C3CCCCN3)CO2)cc1` (stereo not drawn) was more than 100000 nM; that for `c1ccc([C@H]2OC[C@H]([C@@H]3CCCCN3)O2)cc1` was 25000 nM. Consider `c1ccc(C2(c3ccccc3)OC[C@H]([C@@H]3CCCN3)O2)cc1`, for which the Ki is more than 10000 nM.

In the case of `CNC[C@H]1COC(c2ccccc2)(c2ccccc2)O1`, the Ki is 7300 nM. The value for `CC[C@]1(c2cccs2)OC[C@H]([C@@H]2CCCCN2)O1` was 205 nM.

For `C[C@]1(c2ccccc2)OC[C@H]([C@@H]2CCCCN2)O1`, the affinity corresponds to a Ki of 847 nM. As for `CCC1(CC)OC[C@H]([C@@H]2CCCCN2)O1`, the affinity corresponds to a Ki of 87000 nM. In turn, `CC(C)[C@]1(c2ccccc2)OC[C@H]([C@@H]2CCCCN2)O1` registered a Ki of 45 nM. On to `CC[C@]1(c2cccc([N+](=O)[O-])c2)OC[C@H]([C@@H]2CCCCN2)O1`, for which the inhibition constant Ki came out at 1320 nM. Then `CC[C@]1(c2cccc(Cl)c2)OC[C@H]([C@@H]2CCCCN2)O1`, with 59 nM; and `c1ccc(C2(c3ccccc3)CCC(C3CCCCN3)C2)cc1` (single isomer, unassigned; 40a), with 52000 nM. The value for `CC[C@]1(c2ccc(Cl)cc2)OC[C@H]([C@@H]2CCCCN2)O1` was 2800 nM; that for `C1=Cc2ccccc2C2(OC[C@H]([C@@H]3CCCCN3)O2)c2ccccc21` was 325 nM.

The molecule `CC[C@]1(c2ccc(F)cc2)OC[C@H]([C@@H]2CCCCN2)O1` displayed a Ki of 649 nM. On to `NC[C@H]1COC(c2ccccc2)(c2ccccc2)O1`, for which the Ki worked out at 1400 nM.

Molecule `CC[C@]1(c2ccsc2)OC[C@H]([C@@H]2CCCCN2)O1` returned a Ki of 124 nM.

In turn, `CCCCCCCCC[C@]1(c2ccccc2)OC[C@H]([C@@H]2CCCCN2)O1` yielded a Ki of 43000 nM. Then `CC[C@]1(c2ccc(O)cc2)OC[C@H]([C@@H]2CCCCN2)O1`, with 19900 nM; and `CCC[C@]1(c2ccccc2)OC[C@H]([C@@H]2CCCCN2)O1`, with 69 nM; and `c1ccc2c(c1)-c1ccccc1C21OC[C@H]([C@@H]2CCCCN2)O1`, with 15500 nM. Then `c1ccc(C2(c3ccccc3)OC[C@@H]([C@@H]3CCCN3)O2)cc1`, with 3300 nM. The value for `c1ccc(C2(N3CCCCC3)CCCCC2)cc1` [PHENCYCLIDINE] was 80 nM; that for `C[C@H](N)[C@H]1COC(c2ccccc2)(c2ccccc2)O1` was 607 nM. `CCCN1CCCC[C@H]1[C@H]1COC(c2ccccc2)(c2ccccc2)O1` displayed a Ki of 6800 nM. In the case of `c1ccc(CN2CCCC[C@H]2[C@H]2COC(c3ccccc3)(c3ccccc3)O2)cc1`, the Ki stood at 10100 nM.

For `CN[C@@H](C)[C@H]1COC(c2ccccc2)(c2ccccc2)O1`, the Ki was determined as 703 nM. Then `CC[C@]1(c2ccccc2Cl)OC[C@H]([C@@H]2CCCCN2)O1`, with 14.3 nM; and `CN1CCCC[C@H]1[C@H]1COC(c2ccccc2)(c2ccccc2)O1`, with 4400 nM.

In turn, `CC[C@]1(c2cccc(N)c2)OC[C@H]([C@@H]2CCCCN2)O1` yielded an inhibition constant Ki of 1230 nM. Then `CC[C@]1(c2cccc(N=C=S)c2)OC[C@H]([C@@H]2CCCCN2)O1`, with 590 nM; and `CCNC[C@H]1COC(c2ccccc2)(c2ccccc2)O1`, with 8400 nM; and `CCN[C@@H](C)[C@H]1COC(c2ccccc2)(c2ccccc2)O1`, with 9000 nM. The value for `CCCC[C@]1(c2ccccc2)OC[C@H]([C@@H]2CCCCN2)O1` was 200 nM.

As for `C=CCN1CCCC[C@H]1[C@H]1COC(c2ccccc2)(c2ccccc2)O1`, the Ki amounted to 15200 nM.

In turn, `CC[C@]1(c2ccccc2)OC[C@H]([C@@H]2CCCCN2)O1` [ETOXADROL] registered a Ki of 107 nM. Then `CC[C@]1(c2ccccc2O)OC[C@H]([C@@H]2CCCCN2)O1`, with 293 nM; and `CCCCCCN1CCCC[C@H]1[C@H]1COC(c2ccccc2)(c2ccccc2)O1`, with 21200 nM. Then `CCC[C@H](NC)[C@H]1COC(c2ccccc2)(c2ccccc2)O1`, with 7000 nM.

`c1ccc(C2(c3ccccc3)CCC(C3CCCCN3)C2)cc1` (single isomer, unassigned; 40b): affinity was put at a Ki of 8300 nM.
